What all share (type): cell-based, Staphylococcus aureus
Experiment [1] has as its system S. aureus HG003. Nature of the experiment: microbe, parasite or virus in culture. As to conditions: for MIC: Staphylococcus aureus.
The test system of experiment [2] is S. aureus HG003. Nature of the experiment: Propidium iodide uptake, membrane permeability (Example 11).
Experiment [3] relates to S. aureus HG003. Nature of the experiment: Killing by permeabilizing molecules in combination with tobramycin over 24 hours (Example 11).
The test system of experiment [4] is S. aureus HG003. Put plainly: Killing of S. aureus by tobramycin with or without rhamnolipids (Example 4). As to conditions: tobramycin 58 μg/ml alone.
For experiment [5], the system named is S. aureus HG003, arsenate treated. Nature of the experiment: Killing of low energy (arsenate treated) S. aureus (Example 6). As to conditions: tobramycin 58 μg/ml, arsenate 1 mM.
The test system of experiment [6] is S. aureus HG003. Put plainly: Killing in the presence of protein synthesis inhibitor linezolid (Example 8). The note with it: tobramycin 58 μg/ml, linezolid 50 μg/ml.
Experiment [7] relates to S. aureus HG003 menD mutant (SCV).

Each structure is given as a SMILES string. Converted amounts (≈) assume the structure as drawn. Read-outs that look alike come from different tables or passages of the source.

As for `CN[C@H](CC(C)C)C(=O)N[C@H]1C(=O)N[C@@H](CC(N)=O)C(=O)N[C@H]2C(=O)N[C@H]3C(=O)N[C@H](C(=O)N[C@H](C(=O)O)c4cc(O)cc(O)c4-c4cc3ccc4O)[C@H](O)c3ccc(c(Cl)c3)Oc3cc2cc(c3O[C@@H]2O[C@H](CO)[C@@H](O)[C@H](O)[C@H]2O[C@H]2C[C@](C)(N)[C@H](O)[C@H](C)O2)Oc2ccc(cc2Cl)[C@H]1O` [vancomycin], in experiment [1], the “effect of the presence of P. aeruginosa supernatant on MIC” value was “not affected”. Besides, the MIC in experiment [1] (HG003) and in experiment [1] (PA14 / PAO1) was 1.25 µg/mL (≈ 0.863 µM) each time.

Take `CCCCCC/C=C\CCCCCCCC(=O)O` [palmitoleic acid]: in experiment [2], the “lethality to S. aureus alone” value was “not lethal” and the “permeabilization of S. aureus (propidium iodide uptake)” value is “permeabilize”. The “potentiation of tobramycin killing over 24 hours” value in experiment [3] (in combination with tobramycin) is reported as “significant potentiation”.

For the compound `CCCCCCCCCCCC(=O)OCC(O)CO` (stereo not drawn) [glycerol monolaureate], in experiment [2], the “lethality to S. aureus alone” value is listed as “not lethal” and the “permeabilization of S. aureus (propidium iodide uptake)” value is given as “permeabilize”. Besides, the “potentiation of tobramycin killing over 24 hours” value in experiment [3] is recorded as “significant potentiation”.

Take `Cc1onc(-c2ccccc2)c1C(=O)N[C@@H]1C(=O)N2[C@@H]1SC(C)(C)[C@@H]2C(=O)O` [oxacillin]: the “effect of the presence of P. aeruginosa supernatant on MIC” value in experiment [1] was “not affected”. Also, the MIC in experiment [1] (HG003) and in experiment [1] (PA14 / PAO1) was 0.39 µg/mL (≈ 0.971 µM) each time.

On to `NC[C@H]1O[C@H](O[C@H]2[C@H](O)[C@@H](O[C@H]3O[C@H](CO)[C@@H](O)[C@H](N)[C@H]3O)[C@H](N)C[C@@H]2N)[C@H](N)C[C@@H]1O` [tobramycin], for which the MIC is 0.39 µg/mL (≈ 0.834 µM) in experiment [1] (PA14) and 3.12 to 6.25 µg/mL (≈ 6.68 to 13.4 µM) in experiment [1] (PA14 / PAO1). Further, the “survivors after 12 hours” value in experiment [4] is reported as 10^4. For the same compound, the “killing of S. aureus under arsenate-induced low ATP” value in experiment [5] is recorded as “fails to kill”. The “killing in the presence of linezolid” value in experiment [6] was “fails to kill”. Moreover, in experiment [7], the “susceptibility of the menD mutant” value is “resistant”.

The record behind these values is US12594289B2, “Potentiation of antibiotic effect” (The University of North Carolina at Chapel Hill, priority 2017, dated 2026).
